Measurements as given in patent US20230085307A1, “PYRIDAZINONE COMPOUND AND HERBICIDE” (NISSAN CHEMICAL CORPORATION, priority 2019, published 2023).

Assays:
barnyard grass [1] = assay: Test Example 3: herbicidal effect by foliage application, Wagner pot (Table 18, symbol H); type: in vivo, barnyard grass (Echinochloa crus-galli); conditions: 320 g/ha
Outline: (§1)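 Plants were sown in alluvial soil held under 0.1–0.5 cm standing water and grown 14 days in a greenhouse at 25–30 °C. An emulsifiable formulation, water-diluted to the set dose, was then sprayed onto the foliage, and effects were scored three weeks later using previously defined criteria.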

Chinese sprangletop = assay: Test Example 3: herbicidal effect by foliage application, Wagner pot (Table 18, symbol D); type: in vivo, chinese sprangletop (Leptochloa chinensis); conditions: 320 g/ha
Outline: as §1

rice flat sedge = assay: Test Example 3: herbicidal effect by foliage application, Wagner pot (Table 18, symbol E); type: in vivo, rice flat sedge (Cyperus iria); conditions: 320 g/ha
Outline: as §1

southern crabgrass [2] = assay: Test Example 4: herbicidal effect by soil treatment (Table 19, symbol F); type: in vivo, southern crabgrass (Digitaria ciliaris); conditions: amount of applied herbicide 320 g/ha
Outline: (§2)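 Scoring uses the grading scale of an earlier test, three weeks post-application. Treatment consists of spraying a diluted emulsion formulation across the surface of sterilized diluvial soil in which seeds are buried near 1.5 cm deep; boxes are kept in a greenhouse between 25° C. and 30° C.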

green foxtail [3] = assay: Test Example 4: herbicidal effect by soil treatment (Table 19, symbol G); type: in vivo, green foxtail (Setaria viridis); conditions: amount of applied herbicide 320 g/ha
Outline: as §2

barnyard grass [4] = assay: Test Example 4: herbicidal effect by soil treatment (Table 19, symbol H); type: in vivo, barnyard grass (Echinochloa crus-galli); conditions: amount of applied herbicide 320 g/ha
Outline: as §2

wild oat [5] = assay: Test Example 4: herbicidal effect by soil treatment (Table 19, symbol I); type: in vivo, wild oat (Avena fatua); conditions: amount of applied herbicide 320 g/ha
Outline: as §2

blackgrass [6] = assay: Test Example 4: herbicidal effect by soil treatment (Table 19, symbol J); type: in vivo, blackgrass (Alopecurus myosuroides); conditions: amount of applied herbicide 320 g/ha
Outline: as §2

Italian ryegrass [7] = assay: Test Example 4: herbicidal effect by soil treatment (Table 19, symbol K); type: in vivo, Italian ryegrass (Lolium multiflorum); conditions: amount of applied herbicide 320 g/ha
Outline: as §2

windgrass [8] = assay: Test Example 4: herbicidal effect by soil treatment (Table 19, symbol L); type: in vivo, windgrass (Apera spica-venti); conditions: amount of applied herbicide 320 g/ha
Outline: as §2

velvetleaf [9] = assay: Test Example 4: herbicidal effect by soil treatment (Table 19, symbol M); type: in vivo, velvetleaf (Abutilon theophrasti); conditions: amount of applied herbicide 320 g/ha
Outline: as §2

redroot pigweed [10] = assay: Test Example 4: herbicidal effect by soil treatment (Table 19, symbol N); type: in vivo, redroot pigweed (Amaranthus retroflexus); conditions: amount of applied herbicide 320 g/ha
Outline: as §2

lambsquarters [11] = assay: Test Example 4: herbicidal effect by soil treatment (Table 19, symbol O); type: in vivo, lambsquarters (Chenopodium album); conditions: amount of applied herbicide 320 g/ha
Outline: as §2

chickweed [12] = assay: Test Example 4: herbicidal effect by soil treatment (Table 19, symbol P); type: in vivo, common chickweed (Stellaria media); conditions: amount of applied herbicide 320 g/ha
Outline: as §2

persian speedwell [13] = assay: Test Example 4: herbicidal effect by soil treatment (Table 19, symbol R); type: in vivo, Persian speedwell (Veronica persica); conditions: amount of applied herbicide 320 g/ha
Outline: as §2

southern crabgrass [14] = assay: Test Example 5: herbicidal effect by foliage application, plastic box (Table 20, symbol F); type: in vivo, southern crabgrass (Digitaria ciliaris); conditions: foliage application, 320 g/ha, evaluated three weeks after application
Outline: (§3)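 Post-emergence foliar test in sterilized diluvial soil. Compound applied as water-diluted emulsion at a predetermined rate to 14-day-old plants; evaluation at three weeks.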

green foxtail [15] = assay: Test Example 5: herbicidal effect by foliage application, plastic box (Table 20, symbol G); type: in vivo, green foxtail (Setaria viridis); conditions: foliage application, 320 g/ha, evaluated three weeks after application
Outline: as §3

barnyard grass [16] = assay: Test Example 5: herbicidal effect by foliage application, plastic box (Table 20, symbol H); type: in vivo, barnyard grass (Echinochloa crus-galli); conditions: foliage application, 320 g/ha, evaluated three weeks after application
Outline: as §3

wild oat [17] = assay: Test Example 5: herbicidal effect by foliage application, plastic box (Table 20, symbol I); type: in vivo, wild oat (Avena fatua); conditions: foliage application, 320 g/ha, evaluated three weeks after application
Outline: as §3

blackgrass [18] = assay: Test Example 5: herbicidal effect by foliage application, plastic box (Table 20, symbol J); type: in vivo, blackgrass (Alopecurus myosuroides); conditions: foliage application, 320 g/ha, evaluated three weeks after application
Outline: as §3

Italian ryegrass [19] = assay: Test Example 5: herbicidal effect by foliage application, plastic box (Table 20, symbol K); type: in vivo, Italian ryegrass (Lolium multiflorum); conditions: foliage application, 320 g/ha, evaluated three weeks after application
Outline: as §3

windgrass [20] = assay: Test Example 5: herbicidal effect by foliage application, plastic box (Table 20, symbol L); type: in vivo, windgrass (Apera spica-venti); conditions: foliage application, 320 g/ha, evaluated three weeks after application
Outline: as §3

velvetleaf [21] = assay: Test Example 5: herbicidal effect by foliage application, plastic box (Table 20, symbol M); type: in vivo, velvetleaf (Abutilon theophrasti); conditions: foliage application, 320 g/ha, evaluated three weeks after application
Outline: as §3

redroot pigweed [22] = assay: Test Example 5: herbicidal effect by foliage application, plastic box (Table 20, symbol N); type: in vivo, redroot pigweed (Amaranthus retroflexus); conditions: foliage application, 320 g/ha, evaluated three weeks after application
Outline: as §3

lambsquarters [23] = assay: Test Example 5: herbicidal effect by foliage application, plastic box (Table 20, symbol O); type: in vivo, lambsquarters (Chenopodium album); conditions: foliage application, 320 g/ha, evaluated three weeks after application
Outline: as §3

chickweed [24] = assay: Test Example 5: herbicidal effect by foliage application, plastic box (Table 20, symbol P); type: in vivo, common chickweed (Stellaria media); conditions: foliage application, 320 g/ha, evaluated three weeks after application
Outline: as §3

false cleavers = assay: Test Example 5: herbicidal effect by foliage application, plastic box (Table 20, symbol Q); type: in vivo, false cleavers (Galium spurium); conditions: foliage application, 320 g/ha, evaluated three weeks after application
Outline: as §3

persian speedwell [25] = assay: Test Example 5: herbicidal effect by foliage application, plastic box (Table 20, symbol R); type: in vivo, Persian speedwell (Veronica persica); conditions: foliage application, 320 g/ha, evaluated three weeks after application
Outline: as §3

COc1ccc(-c2sc3ccc(Cl)cc3c2-c2c(O)c(C)nn(C)c2=O)cc1 [2-103]
herbicidal effect on H (barnyard grass), rating 0-5 (barnyard grass [1]): 3 (Herbicidal rate of 40% or more and less than 70%)
herbicidal effect on D (Chinese sprangletop), rating 0-5 (Chinese sprangletop): 2 (Herbicidal rate of 20% or more and less than 40%)
herbicidal effect on E (rice flat sedge), rating 0-5 (rice flat sedge): 5 (Herbicidal rate of 90% or more (almost completely withered))
F: southern crabgrass, herbicidal effect rating (southern crabgrass [2]): 0 (Herbicidal rate of 5% or less (almost no effect))
G: green foxtail, herbicidal effect rating (green foxtail [3]): 0 (Herbicidal rate of 5% or less (almost no effect))
H: barnyard grass, herbicidal effect rating (barnyard grass [4]): 0 (Herbicidal rate of 5% or less (almost no effect))
I: wild oat, herbicidal effect rating (wild oat [5]): 0 (Herbicidal rate of 5% or less (almost no effect))
J: blackgrass, herbicidal effect rating (blackgrass [6]): 0 (Herbicidal rate of 5% or less (almost no effect))
K: Italian ryegrass, herbicidal effect rating (Italian ryegrass [7]): 0 (Herbicidal rate of 5% or less (almost no effect))
L: windgrass, herbicidal effect rating (windgrass [8]): 0 (Herbicidal rate of 5% or less (almost no effect))
M: velvetleaf, herbicidal effect rating (velvetleaf [9]): 3 (Herbicidal rate of 40% or more and less than 70%)
N: redroot pigweed, herbicidal effect rating (redroot pigweed [10]): 4 (Herbicidal rate of 70% or more and less than 90%)
O: lambsquarters, herbicidal effect rating (lambsquarters [11]): 4 (Herbicidal rate of 70% or more and less than 90%)
P: chickweed, herbicidal effect rating (chickweed [12]): 4 (Herbicidal rate of 70% or more and less than 90%)
R: persian speedwell, herbicidal effect rating (persian speedwell [13]): 5 (Herbicidal rate of 90% or more (almost completely withered))
herbicidal effect on F: southern crabgrass (southern crabgrass [14]): 0 (Herbicidal rate of 5% or less (almost no effect))
herbicidal effect on G: green foxtail (green foxtail [15]): 0 (Herbicidal rate of 5% or less (almost no effect))
herbicidal effect on H: barnyard grass (barnyard grass [16]): 0 (Herbicidal rate of 5% or less (almost no effect))
herbicidal effect on I: wild oat (wild oat [17]): 0 (Herbicidal rate of 5% or less (almost no effect))
herbicidal effect on J: blackgrass (blackgrass [18]): 1 (Herbicidal rate of 5% or more and less than 20%)
herbicidal effect on K: Italian ryegrass (Italian ryegrass [19]): 0 (Herbicidal rate of 5% or less (almost no effect))
herbicidal effect on L: windgrass (windgrass [20]): 5 (Herbicidal rate of 90% or more (almost completely withered))
herbicidal effect on M: velvetleaf (velvetleaf [21]): 4 (Herbicidal rate of 70% or more and less than 90%)
herbicidal effect on N: redroot pigweed (redroot pigweed [22]): 3 (Herbicidal rate of 40% or more and less than 70%)
herbicidal effect on O: lambsquarters (lambsquarters [23]): 4 (Herbicidal rate of 70% or more and less than 90%)
herbicidal effect on P: chickweed (chickweed [24]): 5 (Herbicidal rate of 90% or more (almost completely withered))
herbicidal effect on Q: false cleavers (false cleavers): 3 (Herbicidal rate of 40% or more and less than 70%)
herbicidal effect on R: persian speedwell (persian speedwell [25]): 5 (Herbicidal rate of 90% or more (almost completely withered))
